Converted amounts (≈) assume the structure as drawn. Where two headings read alike, the source gives them in different places.
What was measured:
Assay in all cases: In vitro MIC, broth dilution
Format in all cases: cell-based
[1] = tested on: E. coli GC 4559; conditions: Escherichia coli, GC4559
[2] = tested on: E. coli GC 4560; conditions: Escherichia coli, GC4560
[3] = tested on: E. coli GC 3226; conditions: Escherichia coli, GC3226
[4] = tested on: S. marcescens GC 4077; conditions: Serratia marcescens, GC4077
[5] = tested on: C. albicans GC 3066; conditions: Candida albicans, GC3066
[6] = tested on: M. morganii GC 4531; conditions: Morganella morganii, GC4531
[7] = tested on: K. pneumoniae GC 4534; conditions: Klebsiella pneumoniae, GC4534
[8] = tested on: E. cloacae GC 3783; conditions: Enterobacter cloacae, GC3783
[9] = tested on: P. aeruginosa GC 4532; conditions: Pseudomonas aeruginosa, GC4532
[10] = tested on: CNS GC 4537
Experimental: (§1) The minimum inhibitory concentration (MIC), the lowest concentration of the antibiotic which inhibits growth of the test organism, is determined by the broth dilution method using Muller-Hinton II […] (Baltimore Biological Laboratories) following the recommendations of National Committee for Clinical Laboratory Standards. [Reference for the Methods for dilution antimicrobial susceptibility tests for bacteria that grow aerobically: National Committee for Clinical Laboratory Standards, 1997. Approved standard M7-A National Committee for Clinical Laboratory Standards, Wayne, Pa.] An inoculum level of 5×10^5 CFU/ml, and a range of antibiotic concentrations (64-0.06 μg/ml) is used. The MIC is determined after the microtiter plates are incubated for 18 hours at 35° C. in an ambient air incubator. The test organisms comprise a spectrum of gram-positive bacteria including Staphylococcus sp., Streptococcus sp. and Enterococcus sp. These organisms include recent clinical isolates that are resistant to methicillin, penicillin and vancomycin.

[11] = tested on: CNS GC 4538
Experimental: as §1

[12] = tested on: CNS GC 4547
Experimental: as §1

[13] = tested on: E. faecalis GC 2242; conditions: Enterococcus faecalis, GC2242
Experimental: as §1

[14] = tested on: E. faecalis GC 4555; conditions: Enterococcus faecalis, GC4555
Experimental: as §1

[15] = tested on: E. faecalis GC 842; conditions: Enterococcus faecalis, GC842
Experimental: as §1

[16] = tested on: S. aureus GC 1131; conditions: Staphylococcus aureus, GC1131
Experimental: as §1

[17] = tested on: S. aureus GC 2216; conditions: Staphylococcus aureus, GC2216
Experimental: as §1

[18] = tested on: S. aureus GC 4536; conditions: Staphylococcus aureus, GC4536
Experimental: as §1

[19] = tested on: E. coli GC 2203; conditions: Escherichia coli, GC2203
[20] = tested on: P. aeruginosa GC 2214; conditions: Pseudomonas aeruginosa, GC2214
[21] = S. marcescens GC 4077, read-out: MIC
[22] = C. albicans GC 3066, read-out: MIC
[23] = M. morganii GC 4531, read-out: MIC
[24] = K. pneumoniae GC 4534, read-out: MIC
[25] = E. cloacae GC 3783, read-out: MIC
[26] = P. aeruginosa GC 4532, read-out: MIC
[27] = E. faecalis GC 2242, read-out: MIC
[28] = E. faecalis GC 4555, read-out: MIC
[29] = E. faecalis GC 842, read-out: MIC
[30] = S. aureus GC 1131, read-out: MIC
[31] = S. aureus GC 2216, read-out: MIC
[32] = S. aureus GC 4536, read-out: MIC
[33] = P. aeruginosa GC 2214, read-out: MIC

Structure (SMILES)	MIC ([1]; E. coli GC 4559, read-out: MIC) [µg/mL]	MIC ([2]; E. coli GC 4560, read-out: MIC) [µg/mL]	MIC ([3]; E. coli GC 3226, read-out: MIC) [µg/mL]	MIC [4, 21] [µg/mL]	MIC [5, 22] [µg/mL]	MIC [6, 23] [µg/mL]	MIC [7, 24] [µg/mL]	MIC [8, 25] [µg/mL]	MIC [9, 26] [µg/mL]	MIC ([10]; CNS GC 4537, read-out: MIC) [µg/mL]	MIC ([11]; CNS GC 4538, read-out: MIC) [µg/mL]	MIC ([12]; CNS GC 4547, read-out: MIC) [µg/mL]	MIC [13, 27] [µg/mL]	MIC [14, 28] [µg/mL]	MIC [15, 29] [µg/mL]	MIC [16, 30] [µg/mL]	MIC [17, 31] [µg/mL]	MIC [18, 32] [µg/mL]	MIC ([19]; E. coli GC 2203, read-out: MIC) [µg/mL]	MIC [20, 33] [µg/mL]	other results
COc1ccc(Cn2c(=O)ccn([C@@H]3OC([C@@H](O)[C@H](NCCCNC(=O)C(NC(=O)OCc4ccccc4)[C@@H](O)C(C)C)C(=O)OC(C)(C)C)[C@@H](O[Si](C)(C)C(C)(C)C)[C@H]3O[Si](C)(C)C(C)(C)C)c2=O)cc1 (stereo in doubt) [Example 3, tert-Butyl (5R,12S)-12-[(S)-[(3R,4R,5R)-3,4-bis{[tert-butyl(dimethyl)silyl]oxy}-5-(3-(4-methoxybenzyl)-2,4-dioxo-3,4-dihydro-1(2H)-pyrimidinyl)tetrahydro-2-furanyl](hydroxy)methyl]-5-[(1S)-1-hydroxy-2-methylpropyl]-3,6-dioxo-1-phenyl-2-oxa-4,7,11-triazatridecan-13-oate]	–	–	–	–	–	–	–	–	–	–	–	–	–	–	–	–	–	–	–	–	MIC [1]: > 128 µg/mL; MIC [2]: 128 µg/mL (≈ 123 µM); MIC [3]: > 128 µg/mL; MIC [4]: > 128 µg/mL; MIC [5]: 128 µg/mL (≈ 123 µM); MIC [6]: 128 µg/mL (≈ 123 µM); MIC [7]: > 128 µg/mL; MIC [8]: > 128 µg/mL; MIC [9]: 128 µg/mL (≈ 123 µM); MIC [10]: > 128 µg/mL; MIC [11]: > 128 µg/mL; MIC [12]: 128 µg/mL (≈ 123 µM); MIC [13]: 128 µg/mL (≈ 123 µM); MIC [14]: 128 µg/mL (≈ 123 µM); MIC [15]: > 128 µg/mL; MIC [16]: > 128 µg/mL; MIC [17]: > 128 µg/mL; MIC [18]: > 128 µg/mL; MIC [19]: > 128 µg/mL; MIC [20]: 128 µg/mL (≈ 123 µM)
COc1ccc(Cn2c(=O)ccn([C@@H]3OC(C(O)[C@H](NCCCNC(=O)[C@@H](N)CC(=O)O)C(=O)OC(C)(C)C)[C@@H](O[Si](C)(C)C(C)(C)C)[C@H]3O[Si](C)(C)C(C)(C)C)c2=O)cc1 (stereo in doubt) [Example 17, (3S)-3-Amino-4-[(3-{[(1S,2S)-2-[(3R,4R,5R)-3,4-bis{[tert-butyl(dimethyl)silyl]oxy}-5-(3-(4-methoxybenzyl)-2,4-dioxo-3,4-dihydro-1(2H)-pyrimidinyl)tetrahydro-2-furanyl]-1-(tert-butoxycarbonyl)-2-hydroxyethyl]amino}propyl)amino]-4-oxobutanoic acid]	> 128	> 128	> 128	> 128	> 128	> 128	> 128	> 128	> 128	> 128	64 (≈ 71.6 µM)	> 128	4 (≈ 4.47 µM)	16 (≈ 17.9 µM)	32 (≈ 35.8 µM)	128 (≈ 143 µM)	32 (≈ 35.8 µM)	128 (≈ 143 µM)	> 128	> 128	–
COc1ccc(Cn2c(=O)ccn([C@@H]3OC([C@H](O)[C@H](NCCCNC(=O)[C@@H](NC(=O)OCc4ccccc4)C(C)O)C(=O)O)[C@@H](O)C3O[Si](C)(C)C(C)(C)C)c2=O)cc1 (stereo in doubt) [Example 46, (5S,12S)-12-[(R)-[(3R,4R,5R)-4-{[tert-butyl(dimethyl)silyl]oxy}-3-hydroxy-5-(3-(4-methoxy-benzyl)-2,4-dioxo-3,4-dihydro-1(2H)-pyrimidinyl)tetrahydro-2-furanyl](hydroxy)methyl]-5-[(1S)-1-hydroxyethyl]-3,6-dioxo-1-phenyl-2-oxa-4,7,11-triazatridecan-13-oic acid]	> 128	128 (≈ 152 µM)	> 128	> 128	128 (≈ 152 µM)	128 (≈ 152 µM)	> 128	> 128	128 (≈ 152 µM)	> 128	> 128	> 128	128 (≈ 152 µM)	128 (≈ 152 µM)	128 (≈ 152 µM)	> 128	> 128	> 128	> 128	128 (≈ 152 µM)	–
CCCCCCCCCCCCCC(=O)OC(C)[C@H](NC(=O)OCc1ccccc1)C(=O)NCCCNC(C(=O)OCC)C(O)C1O[C@@H](n2ccc(=O)[nH]c2=O)[C@H](OC(C)=O)[C@@H]1OC(C)=O (stereo in doubt) [Example 58, Ethyl (5S)-12-[(R)-[(2R,3R,4R,5R)-3,4-bis(acetyloxy)-5-(2,4-dioxo-3,4-dihydropyrimidin-1(2 h)-yl)tetrahydrofuran-2-yl](hydroxy)methyl]-3,6-dioxo-1-phenyl-5-[(1S)-1-(tetradecanoyloxy)ethyl]-2-oxa-4,7,11-triazatridecan-13-oate]	> 128	> 128	> 128	> 128	> 128	> 128	> 128	> 128	> 128	> 128	> 128	> 128	> 128	> 128	> 128	> 128	> 128	> 128	> 128	> 128	–
COc1ccc(Cn2c(=O)ccn([C@@H]3OC([C@H](O)[C@H](NCCCNC(=O)[C@@H](NC(=O)OCc4ccccc4)[C@@H](O)C(C)C)C(=O)OC(C)(C)C)[C@@H](O[Si](C)(C)C(C)(C)C)[C@H]3O[Si](C)(C)C(C)(C)C)c2=O)cc1 (stereo partly drawn) [Example 1, tert-Butyl (5S,12S)-12-[(R)-[(3R,4R,5R)-3,4-bis{[tert-butyl(dimethyl)silyl]oxy}-5-(3-(4-methoxybenzyl)-2,4-dioxo-3,4-dihydro-1(2H)-pyrimidinyl)tetrahydro-2-furanyl](hydroxy)methyl]-5-[(1S)-1-hydroxy-2-methylpropyl]-3,6-dioxo-1-phenyl-2-oxa-4,7,11-triazatridecan-13-oate]	–	–	–	–	–	–	–	–	–	–	–	–	–	–	–	–	–	–	–	–	MIC [1]: > 128 µg/mL; MIC [2]: > 128 µg/mL; MIC [3]: > 128 µg/mL; MIC [4]: > 128 µg/mL; MIC [5]: > 128 µg/mL; MIC [6]: > 128 µg/mL; MIC [7]: > 128 µg/mL; MIC [8]: > 128 µg/mL; MIC [9]: 128 µg/mL (≈ 123 µM); MIC [10]: > 128 µg/mL; MIC [11]: > 128 µg/mL; MIC [12]: > 128 µg/mL; MIC [13]: 128 µg/mL (≈ 123 µM); MIC [14]: 128 µg/mL (≈ 123 µM); MIC [15]: > 128 µg/mL; MIC [16]: > 128 µg/mL; MIC [17]: > 128 µg/mL; MIC [18]: > 128 µg/mL; MIC [19]: > 128 µg/mL; MIC [20]: 128 µg/mL (≈ 123 µM)

Reference: US6858591B2, “Antibiotic AA 896 analogs” (Wyeth Holdings Corporation, priority 2001, dated 2005)
